Results from patent publication US20260355225A1 (priority 2022, published 2026).

Tested on: SARS-CoV-2
Test: Antiviral assay, inhibition of virus-induced cytopathic effect (CPE) of SARS-CoV-2 by MTT assay (Example 1)
Settings: Severe acute respiratory syndrome coronavirus 2, Vero C1008, SARS-CoV-2, Vero E6 (CPE & MTT)

In the case of `O=C[C@H](O)[C@@H](O)[C@H](O)CO` [D-xylose], the IC50 (administration at the same time as the virus) is reported as 26.2 mM and the IC50 (preincubation with cells 6 h before infection) is reported as 95.5 mM.
